The record followed here is patent EP4061322B1 (Institut des Sciences et Industries du Vivant et de …, priority 2019, dated 2021).

Molecules are shown by their SMILES.

Data set [1] in a line: Photostability under UV exposure. The format is physicochemical. The settings on record: Tableau 1; for Perte d'activité (%): UV exposure λ 300 nm, P 8.32 W/m^2, one hour. From the text: La stabilité des composés 1 à 7 aux UV a été étudiée par soumission à une exposition (λ : 300 nm, P : 8.32 W/m^2) pendant une heure.
L'Avobenzone a été utilisée comme molécule de référence. Cette molécule est connue pour être […] sous exposition UV, ce qui n'est pas du tout le cas d'autres composés bio-sourcés.
La photostabilité des composés 8 à 11 a également été étudiée, de manière identique au test appliqué aux composés 1 à 7. Les résultats obtenus sont présentés dans le Tableau 2. […] Cette méthodologie a été appliquée à l'ensemble des molécules décrites ci-dessus. Tableau 2 : Stabilité des composés 8 à 11 soumis à une exposition aux UV.

For data set [2], the target named is T1, AR (récepteur des androgènes) (Homo sapiens, UniProt P10275).
T1 sequence (P10275 1-920): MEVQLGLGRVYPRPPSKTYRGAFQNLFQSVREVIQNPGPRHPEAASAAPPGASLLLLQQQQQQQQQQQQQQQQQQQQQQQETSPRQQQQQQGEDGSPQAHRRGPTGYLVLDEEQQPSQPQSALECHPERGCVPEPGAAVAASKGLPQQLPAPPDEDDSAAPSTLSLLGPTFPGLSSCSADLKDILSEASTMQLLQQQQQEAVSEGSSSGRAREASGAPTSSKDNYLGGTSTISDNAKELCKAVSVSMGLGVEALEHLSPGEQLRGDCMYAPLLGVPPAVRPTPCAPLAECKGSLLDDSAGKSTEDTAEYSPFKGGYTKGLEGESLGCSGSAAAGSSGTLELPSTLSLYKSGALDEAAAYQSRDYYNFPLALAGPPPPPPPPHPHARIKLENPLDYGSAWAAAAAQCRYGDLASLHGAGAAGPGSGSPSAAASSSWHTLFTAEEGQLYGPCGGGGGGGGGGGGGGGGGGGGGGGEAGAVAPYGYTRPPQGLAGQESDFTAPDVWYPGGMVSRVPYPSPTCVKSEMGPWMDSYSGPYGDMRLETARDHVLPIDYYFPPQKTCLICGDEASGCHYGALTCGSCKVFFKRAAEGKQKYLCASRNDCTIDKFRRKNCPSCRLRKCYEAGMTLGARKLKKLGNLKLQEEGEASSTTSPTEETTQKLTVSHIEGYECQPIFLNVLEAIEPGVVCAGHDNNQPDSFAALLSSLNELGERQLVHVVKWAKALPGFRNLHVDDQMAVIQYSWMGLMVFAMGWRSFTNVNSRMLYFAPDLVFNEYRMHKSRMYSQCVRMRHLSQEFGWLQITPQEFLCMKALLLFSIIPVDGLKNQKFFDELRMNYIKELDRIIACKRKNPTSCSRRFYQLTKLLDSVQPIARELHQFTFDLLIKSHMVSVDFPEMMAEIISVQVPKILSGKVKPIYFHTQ
Briefly: Endocrine system: receptor activity in presence of compound (agonist effect). The settings on record: Figure 6, C = 10 µM; even at the highest concentrations. In kind it is cell-based. The source says:
(§1) L'effet des composés 1 et 4 sur le système endocrinien a été évalué pour leurs propriétés agonistes et antagonistes sur différents récepteurs : ERα (récepteur œstrogène alpha), AR (récepteur des androgènes) et PXR (pregnane X receptor). Un premier test consiste à étudier l'activité des récepteurs en présence du composé 1 ou 4 (effet agoniste). […] Un second test vise à l'étude de l'activité des récepteurs en présence du composé 1 ou 4 et d'une molécule de référence pour chaque récepteur (effet antagoniste).

For data set [3], the target named is T2, ERα (récepteur œstrogène alpha) (Homo sapiens, UniProt P03372).
T2 sequence (P03372 1-595): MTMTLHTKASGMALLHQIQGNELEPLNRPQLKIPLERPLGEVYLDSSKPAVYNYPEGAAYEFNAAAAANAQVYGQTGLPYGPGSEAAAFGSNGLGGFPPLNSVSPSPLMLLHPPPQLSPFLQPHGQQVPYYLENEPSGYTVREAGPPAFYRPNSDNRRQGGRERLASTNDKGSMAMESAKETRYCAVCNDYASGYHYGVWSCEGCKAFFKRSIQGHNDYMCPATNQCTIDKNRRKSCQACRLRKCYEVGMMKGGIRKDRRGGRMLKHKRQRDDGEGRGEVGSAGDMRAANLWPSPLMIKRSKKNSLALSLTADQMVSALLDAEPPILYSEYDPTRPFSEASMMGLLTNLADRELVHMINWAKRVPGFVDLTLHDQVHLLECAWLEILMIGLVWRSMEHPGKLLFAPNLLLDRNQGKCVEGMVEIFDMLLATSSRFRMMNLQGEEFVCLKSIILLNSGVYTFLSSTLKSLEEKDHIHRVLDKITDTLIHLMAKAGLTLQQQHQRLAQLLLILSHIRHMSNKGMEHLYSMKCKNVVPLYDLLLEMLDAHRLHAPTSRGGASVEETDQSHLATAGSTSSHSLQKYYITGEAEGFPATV
Described as above. Particulars: Figure 6, C = 10 µM; even at the highest concentrations. The format is cell-based.
Source text: as §1

Data set [4] addresses T3, PXR (pregnane X receptor) (Homo sapiens, UniProt O75469).
T3 sequence (O75469 1-434): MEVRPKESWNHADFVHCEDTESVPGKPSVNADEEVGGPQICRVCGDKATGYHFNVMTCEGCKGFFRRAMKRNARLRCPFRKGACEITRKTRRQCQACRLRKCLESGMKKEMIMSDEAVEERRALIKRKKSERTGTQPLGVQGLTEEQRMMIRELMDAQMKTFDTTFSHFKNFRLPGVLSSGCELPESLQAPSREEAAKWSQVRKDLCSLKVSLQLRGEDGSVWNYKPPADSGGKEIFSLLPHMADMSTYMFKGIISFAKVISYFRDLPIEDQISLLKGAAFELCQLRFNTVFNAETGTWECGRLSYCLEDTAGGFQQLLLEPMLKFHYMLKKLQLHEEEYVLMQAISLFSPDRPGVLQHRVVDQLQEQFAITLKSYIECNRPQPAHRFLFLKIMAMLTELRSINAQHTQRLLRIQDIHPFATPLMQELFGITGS
Described as above. Particulars: Figure 6, C = 10 µM; even at the highest concentrations. The format is cell-based.
Source text: as §1

In data set [5] the target is T1, AR (récepteur des androgènes). The data set can be described thus: Endocrine system: receptor activity in presence of compound and reference molecule (antagonist effect). In kind it is cell-based. Particulars: Figure 8; with reference molecule; even at the highest concentrations.
Source text: as §1

The target in data set [6] is T2, ERα (récepteur œstrogène alpha). Described as above. In kind it is cell-based. Particulars: Figure 7; with reference molecule; even at the highest concentrations.
Source text: as §1

In data set [7] the target is T3, PXR (pregnane X receptor). The data set is described as above. In kind it is cell-based. Particulars: Figure 9; with reference molecule; even at the highest concentrations.
Source text: as §1

A short description of data set [8]: UV-Vis absorption spectrum (anti-UVA and blue light properties). Particulars: Tableau 1. On the set-up: λmax: unit not given here. In kind it is physicochemical. From the text: Un spectre UV-Vis a été réalisé dans l'éthanol à 10^-5 mol/L pour les composés 1 à 7, qui sont des dérivés furaniques de l'acide de Medrum. L'Avobenzone, une molécule très largement utilisée comme filtre UVA dans les crèmes solaires, a été utilisée en tant que référence.
Cette méthodologie a été employée pour évaluer les propriétés anti-UV des composés 8 à 11, qui sont des dérivés phénoliques de l'acide de Medrum, des composés 12 à 15 qui sont des dérivés pyrroliques de l'acide de Meldrum, des composés 16 à 18 qui sont des dérivés vinylphénol de l'acide de Meldrum, le composé 19 qui est un dérivé vinylfurane de l'acide de Meldrum.

For `CC1(C)OC(=O)C(=Cc2ccc(CO)o2)C(=O)O1` [compound 4, 5-[[5-(Hydroxymethyl)-2-furanyl]methylene]-2,2-dimethyl-1,3-dioxane-4,6-dione], the “Perte d'activité (%)” value was less than 5% in data set [1] and 3,4% in data set [1] (listed as Composé (4)). Besides, the “A (t=0 min)” value in data set [1] (absorbance before UV exposure) is 0,28814. Besides, the “effet agoniste (activité du récepteur AR)” value in data set [2] is on record as “n'induisent pas une activité anormale des récepteurs”. Also, in data set [3], the “effet agoniste (activité du récepteur ERα)” value is on record as “n'induisent pas une activité anormale des récepteurs”. The “effet agoniste (activité du récepteur PXR)” value in data set [4] is on record as “n'induisent pas une activité anormale des récepteurs”. The “effet antagoniste sur le récepteur AR” value in data set [5] is listed as “n'empêchent pas l'activité des récepteurs envers les molécules de référence”. In addition, the “effet antagoniste sur le récepteur ERα” value in data set [6] was “n'empêchent pas l'activité des récepteurs envers les molécules de référence”. Moreover, in data set [7], the “effet antagoniste sur le récepteur PXR” value is “n'empêchent pas l'activité des récepteurs envers les molécules de référence”. The same compound yielded a λmax in data set [8] of 374.
